In ChEMBL document CHEMBL5728082, “Aryl, heteroaryl, and heterocyclic compounds for treatment of medical disorders” (2020):

Biological target: Complement factor D (Homo sapiens, UniProt P00746)
Assay: Inhibition Assay: Human Factor D (purified from human serum, Complement Technology, Inc.) at 80 nM final concentration was incubated with test compound at various concentrations for 5 minutes at room temperature in 50 mM Tris, 1M NaCl, pH 7.5. A synthetic substrate Z-L-Lys-SBzl and DTNB (Ellman's reagent) are added to final concentrations of 100 Î¼M each. […] IC50 values are calculated by nonlinear regression of complement Factor D reaction rates as a function of test compound concentration.

Sequence of Complement factor D (P00746 whole entry): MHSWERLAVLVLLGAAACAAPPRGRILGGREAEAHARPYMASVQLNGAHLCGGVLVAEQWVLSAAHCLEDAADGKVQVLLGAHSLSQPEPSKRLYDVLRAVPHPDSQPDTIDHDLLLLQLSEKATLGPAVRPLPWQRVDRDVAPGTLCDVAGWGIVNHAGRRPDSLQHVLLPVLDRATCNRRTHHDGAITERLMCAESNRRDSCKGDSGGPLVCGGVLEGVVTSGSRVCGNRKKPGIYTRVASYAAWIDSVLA

CC(=O)c1nn(CC(=O)N2[C@H](C(=O)N[C@H](C)[C@H]3CC3(Cl)Cl)C[C@@]3(C)C[C@@H]23)c2ccc(-c3cnc(C)nc3)cc12
IC50: < 1 µM
